Data as given in patent US8609862B2, “Use of an adrenal hormone-modifying agent” (Novartis AG, priority 2010, dated 2013).

Legend:
Rat CYP11B1 = target: T1, Rat CYP11B1 (Rattus norvegicus, UniProt P15393); experiment: In vitro rat CYP11B1 assay; assay type: biochemical; settings: V79-4 cell homogenate, 11-deoxycorticosterone to corticosterone, SPA
T1 construct: made in house; host or cells: V79-4 cell line #259 (stably selected with geneticin and hygromycin); sonicated homogenate, 500 x g supernatant
T1 sequence (P15393 25-499): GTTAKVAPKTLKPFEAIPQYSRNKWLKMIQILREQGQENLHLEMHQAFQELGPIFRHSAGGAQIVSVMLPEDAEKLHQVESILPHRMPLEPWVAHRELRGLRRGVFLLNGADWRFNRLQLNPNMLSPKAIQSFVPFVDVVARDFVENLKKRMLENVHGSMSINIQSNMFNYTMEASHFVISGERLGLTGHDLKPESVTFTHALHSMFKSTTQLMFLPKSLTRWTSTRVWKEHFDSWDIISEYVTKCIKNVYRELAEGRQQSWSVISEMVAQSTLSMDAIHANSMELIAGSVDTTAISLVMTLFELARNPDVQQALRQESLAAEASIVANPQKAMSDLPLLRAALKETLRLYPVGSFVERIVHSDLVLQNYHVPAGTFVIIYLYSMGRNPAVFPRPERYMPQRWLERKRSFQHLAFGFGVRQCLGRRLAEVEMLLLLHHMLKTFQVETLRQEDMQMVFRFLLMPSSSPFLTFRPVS
Description: Complete EDTA-free protease inhibitor tablets were obtained from Roche Applied Science (Indianapolis, Ind.). Dulbecco's modified Eagle medium (DMEM), antibiotic, geneticin, hygromycin, and fetal bovine serum (FBS) were products of Invitrogen (Carlsbad, Calif.). NADPH Regeneration Solution A and Solution B were purchased from BD Biosciences Clontech (Palo Alto, Calif.). Anti-sheep PVT SPA beads and [1,2,6,7-^3H(N)]corticosterone were acquired from Amersham (Piscataway, N.J.) and PerkinElmer (Boston, Mass.), respectively.
For enzyme preparation, #259 cells were seeded in 150 mm dishes in double-selection medium. Following 2 days of growth, cells were washed once with PBS, scraped and collected in PBS, and centrifuged at 1,300 rpm for 6 min. […] The sonication procedure was repeated 3 more times, with a 5 min rest on ice between sonications. The sonicated material was then spun at 500×g for 4 min to remove unbroken cells. The supernatant was brought to a final glycerol concentration of 5%, flash-frozen in liquid nitrogen, and stored at −80° C.
The CYP11B1 assays were performed in 96-well U-bottom non-tissue-culture-treated plates. […] Plates were then centrifuged at 2,400 rpm for 6 min, and 50 μl of supernatant was removed for measurement of corticosterone content by scintillation proximity assay (SPA).
(§1) Measurement of corticosterone was performed using a 96-well plate format. […] Anti-sheep PVT SPA beads (50 μl) were then added to each well and incubated overnight at room temperature prior to counting in a Microbeta plate counter. The amount of corticosterone in each sample was calculated by comparing with a standard curve generated using known quantities of the hormone.
Full concentration-response curves of an inhibitor were performed at least 3 times. The IC50 values were derived using a non-linear least squares curve-fitting program from IDBS XLfit.

Rat CYP11B2 = target: T2, Rat CYP11B2 (Rattus norvegicus, UniProt P30099); experiment: In vitro rat CYP11B2 assay; assay type: biochemical; settings: V79-4 cell homogenate, 11-deoxycorticosterone to aldosterone, SPA
T2 construct: made in house; host or cells: V79-4 cell line #305 (stably selected with geneticin and hygromycin); sonicated homogenate, 500 x g supernatant
T2 sequence (P30099 35-510): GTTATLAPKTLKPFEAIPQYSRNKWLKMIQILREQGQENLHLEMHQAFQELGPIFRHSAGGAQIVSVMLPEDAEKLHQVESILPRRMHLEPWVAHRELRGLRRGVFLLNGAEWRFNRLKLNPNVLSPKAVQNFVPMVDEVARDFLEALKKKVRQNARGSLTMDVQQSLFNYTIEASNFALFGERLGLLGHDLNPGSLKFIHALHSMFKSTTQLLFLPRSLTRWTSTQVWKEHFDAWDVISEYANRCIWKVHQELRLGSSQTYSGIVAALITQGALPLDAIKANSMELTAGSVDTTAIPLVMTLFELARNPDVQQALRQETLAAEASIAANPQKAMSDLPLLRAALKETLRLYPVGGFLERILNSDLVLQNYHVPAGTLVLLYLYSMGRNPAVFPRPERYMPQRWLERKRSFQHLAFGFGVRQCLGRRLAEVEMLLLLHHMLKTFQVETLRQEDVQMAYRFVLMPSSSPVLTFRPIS
Description: Following 2 days of growth, cells are washed once with PBS, scraped and collected in PBS, and centrifuged at 1,300 rpm for 6 min. […] The sonication procedure is repeated 3 more times, with a 5 min incubation on ice between sonications. The sonicated material is then spun at 500×g for 4 min to remove unbroken cells. The supernatant is brought to a final glycerol concentration of 5%, flash-frozen in liquid nitrogen, and stored at −80° C.
The CYP11B2 assay is performed in 96-well U-bottom non-tissue-culture-treated plates. […] Plates are then centrifuged at 2,400 rpm for 6 min, and 100 μl of supernatant is removed for measurement of aldosterone content by scintillation proximity assay (SPA).
as §1, with “aldosterone is” for “corticosterone was”, “Anti-mouse” for “Anti-sheep”, “are” for “were”, “for 4 hr” for “overnight”, “aldosterone” for “corticosterone”, “is” for “was”
Full concentration-response curves of an inhibitor are performed at least 3 times. The IC50 values are derived using a non-linear least squares curve-fitting program from DBS XLfit.

CYP11B1 = target: T3, CYP11B1 (Rattus norvegicus, UniProt P15393); experiment: In vivo CYP11B1 assay: plasma corticosterone concentration (PCC) in ACTH-infused conscious rats; settings: 10 mg/kg p.o., ACTH infusion
T3 construct: from tissue; host or cells: whole animal: conscious male Sprague-Dawley rats under ACTH infusion (the adrenal gland as site of the enzyme comes from the background, b5)
T3 sequence (P15393 25-499): T1 sequence (P15393 25-499)
Description: (§2) The in vivo effects of compounds on plasma aldosterone concentration (PAC) and plasma glucocorticoid (corticosterone) concentration (PCC) were evaluated in conscious rats.
(§3) Male Sprague-Dawley rats (˜400-600 g body weight) were surgically instrumented with a femoral arterial and venous catheter. The catheters were exteriorized from the lower back through a stainless steel spring and swivel system that enabled the rats to move freely at all times. Rats were allowed at least one week to recover from the surgery before initiating the experiments.
(§4) On the morning of the experiment, a pretreatment blood sample was collected on heparin from the arterial catheter. The blood samples were spun in a refrigerated centrifuge to generate plasma. The plasma was stored frozen at −70° C. until the later measurement of PAC and PCC (by radioimmunoassay). Adrenocorticotropic hormone (ACTH(1-24), referred to herein as ACTH) was then administered as an intravenous (i.v.) bolus (100 ng/kg) followed by a continuous i.v. infusion (30 ng/kg/min) for 9 hours. After one hour of infusion, a baseline (time 0) blood sample was withdrawn from the arterial catheter and processed and stored as described above. The rats were then dosed (typically 0.01 to 100 mg/kg) with the test compound p.o. by oral gavage or parenterally via the arterial catheter (i.a.). Compounds were formulated in an appropriate vehicle (e.g., water (p.o.) or saline (i.a.)) at a physiologically compatible volume (typically 1-2 ml/kg). Additional blood samples were withdrawn at 0.083 (i.a. only), 0.25, 0.5, 1, 2, 3, 4, 5, 6, 7, 8, and 24 hours after dosing with compound and processed and stored as above for later determination of PAC, PCC, and plasma compound concentration (by LC/MS/MS). Oral bioavailability and traditional pharmacokinetic (PK) parameters were estimated from the plasma compound concentrations.
(§5) Based on the plasma compound concentration at each dose, the PK/PD (pharmacodynamic) profiles (reduction of PAC and PCC) of each compound were determined.

CYP11B2 = target: T4, CYP11B2 (Rattus norvegicus, UniProt P30099); experiment: In vivo assay: plasma aldosterone concentration (PAC) in ACTH-infused conscious rats; settings: 10 mg/kg p.o., ACTH infusion
T4 construct: from tissue; host or cells: whole animal: conscious male Sprague-Dawley rats under ACTH infusion (the adrenal gland as site of the enzyme comes from the background, b5)
T4 sequence (P30099 35-510): T2 sequence (P30099 35-510)
Description: as §2, §3, §4, §5

adrenal steroidogenesis = experiment: Pilot single-blind forced-titration study of hormonal effects in patients with primary hyperaldosteronism; assay type: in vivo, human; settings: oral 0.5 mg twice daily 2 weeks then 1.0 mg twice daily 2 weeks
Description: A pilot, single-blind, forced-titration study was performed to assess the hormonal effects of a compound of formula (I), 4-[(5R)-6,7-dihydro-5H-pyrrolo[1,2-c]imidazol-5-yl]-3-fluororbenzonitrile dihydrogen phosphate, in patients with diagnosed primary hyperaldosteronism. The clinical study was designed, implemented and reported in accordance with the ICH harmonized tripartite guidelines for good clinical practice with applicable local regulations. Each patient participated in a screening/washout period, a 2-week placebo run-in period, a 4-week treatment period, and a 1-week placebo wash-out. The treatment period consisted of the oral administration of compound of formula (I) twice daily at a dose of 0.5 mg for two weeks followed by a dose increase to 1.0 mg twice daily for another 2 weeks. Blood samples were taken at baseline, day 1 and 2, day 8, day 15, day 22, day 29 and 30 (all at predose i.e., 12 h after the last dose), and at the final study day 36. Each sample was assessed for aldosterone and immunoreactive active renin, 11-deoxycorticosterone, cortisol, 11-deoxycortisol and adrenocorticotropin (ACTH) after subjects were at rest for at least 60 minutes to avoid any postural or stress-induced value changes. Plasma aldosterone was measured using a commercially available radioimmunoassay kit (DPC, France). Plasma Active Renin was measured using the two monoclonal antibodies 3E8 and 125I-4G1 in a commercially available immunoradiometric kit (CisBio, France). Plasma 11-deoxycorticosterone, cortisol and 11-deoxycortisol were measured using a standardized LC-MS/MS method. Plasma ACTH was measured using a commercially available immunoradiometric kit (CisBio, France).
Statistical analysis of the pharmacodynamic biomarker were summarized using descriptive statistics as well as graphical and/or regression methods.

## N#Cc1ccc([C@H]2CCc3cncn32)c(F)c1 (single isomer, unassigned) [4-(6,7-Dihydro-5H-pyrrolo[1,2-c]imidazol-5-yl)-3-fluorobenzonitrile enantiomer B, 4-(6,7-Dihydro-5H-pyrrolo[1,2-c]imidazol-5-yl)-3-fluorobenzonitrile]
Rat CYP11B1
  IC50: 0.495 µM
Rat CYP11B2
  IC50: 0.11 µM
CYP11B1; 1 h after dosing
  % Reduction from baseline PCC t = 1 h: 24%
CYP11B1; 8 h after dosing
  % Reduction from baseline PCC 8 h: 30%
CYP11B2; 1 h after dosing
  % Reduction from baseline PAC t = 1 h: 65%
CYP11B2; 8 h after dosing
  % Reduction from baseline PAC 8 h: 72%

## N#Cc1ccc([C@H]2CCc3cncn32)c(F)c1.O=P(O)(O)O [4-[(5R)-6,7-dihydro-5H-pyrrolo[1,2-c]imidazol-5-yl]-3-fluororbenzonitrile dihydrogen phosphate]
Adrenal steroidogenesis
  plasma 11-deoxycorticosterone (P11DOCS): unexpectedly high build-up
  plasma 11-deoxycortisol (P11DOC): accumulation
  plasma ACTH levels: increased ACTH levels
  plasma active renin level: increased active renin level
  plasma aldosterone: potent aldosterone suppression
  plasma cortisol levels: decreasing cortisol levels
